In patent US6869957B1, “Non-peptide tachykinin receptor antagonists” (Eli Lilly and Company, priority 1993, dated 2005):

Columns and labels:
human NK-2 receptor = molecular target: T1, human NK-2 receptor (Homo sapiens, UniProt P21452); experiment: NK-2 Receptor Binding Assay ([125I]iodohistidyl-neurokinin A, CHO-hNK-2R membranes); conditions: for IC50: inhibits fifty percent of binding of [125I]iodohistidyl-neurokinin A to CHO-hNK-2R membranes
T1 construct: expressed in transfected cells; host or cells: CHO-hNK-2R cells (CHO-derived), membrane preparation
T1 sequence (P21452 1-398): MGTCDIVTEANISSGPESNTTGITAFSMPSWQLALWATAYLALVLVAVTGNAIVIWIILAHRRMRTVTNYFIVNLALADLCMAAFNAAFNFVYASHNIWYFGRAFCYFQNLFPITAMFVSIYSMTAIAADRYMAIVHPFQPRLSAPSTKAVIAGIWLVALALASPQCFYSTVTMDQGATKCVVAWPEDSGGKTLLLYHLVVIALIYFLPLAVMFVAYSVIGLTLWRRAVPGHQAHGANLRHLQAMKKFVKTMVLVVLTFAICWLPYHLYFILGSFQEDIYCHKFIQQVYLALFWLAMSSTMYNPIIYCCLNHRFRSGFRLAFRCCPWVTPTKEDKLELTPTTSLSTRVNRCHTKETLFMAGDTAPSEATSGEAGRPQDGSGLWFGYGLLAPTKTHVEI
Method: The biological activity of the compounds of the present invention was evaluated employing an initial screening assay which rapidly and accurately measured the binding of the tested compound to known NK-1 and NK-2 receptor sites. Assays useful for evaluating tachykinin receptor antagonists are well known in the art. See. e.g., J. Jukic, et al., Life Sciences, 49:1463-1469 (1991); N. Kucharczyk, et al., Journal of Medicinal Chemistry, 36:1654-1661 (1993); N. Rouissi, et al., Biochemical and Biophysical Research Communications, 176:894-901 (1991).
NK-2 Receptor Binding Assay
The CHO-hNK-2R cells, a CHO-derived cell line transformed with the human NK-2 receptor, expressing about 400,000 such receptors per cell, were grown in 75 cm^2 flasks or roller bottles in minimal essential medium (alpha modification) with 10% fetal bovine serum. The gene sequence of the human NK-2 receptor is given in N. P. Gerard, et al., Journal of Biological Chemistry, 265:20455-20462 (1990).
For preparation of membranes, 30 confluent roller bottle cultures were dissociated by washing each roller bottle with 10 ml of Dulbecco's phosphate buffered saline (PBS) without calcium and magnesium, followed by addition of 10 ml of enzyme-free cell dissociation solution (PBS-based, from Specialty Media, Inc.). After an additional 15 minutes, the dissociated cells were pooled and centrifuged at 1,000 RPM for 10 minutes in a clinical centrifuge. Membranes were prepared by homogenization of the cell pellets in 300 ml 50 mM Tris buffer, pH 7.4 with a Tekma® homogenizer for 10-15 seconds, followed by centrifugation at 12,000 RPM (20,000×g) for 30 minutes using a Beckman JA-14® rotor. The pellets were washed once using the above procedure. and the final pellets were resuspended in 100-120 ml 50 mM Tris buffer, pH 7.4, and 4 ml aliquots stored frozen at −70° C. The protein concentration of this preparation was 2 mg/ml.
For the receptor binding assay, one 4-ml aliquot of the CHO-hNK-2R membrane preparation was suspended in 40 ml of assay buffer containing 50 mM Tris, pH 7.4, 3 mM manganese chloride, 0.02% bovine serum albumin (BSA) and 4 μg/ml chymostatin. A 200 μl volume of the homogenate (40 μg protein) was used per sample. The radioactive ligand was [^125I]iodohistidyl-neurokinin A (New England Nuclear, NEX-252), 2200 Ci/mmol. The ligand was prepared in assay buffer at 20 nCi per 100 μl; the final concentration in the assay was 20 pM. Non-specific binding was determined using 1 μM eledoisin. Ten concentrations of eledoisin from 0.1 to 1000 nM were used for a standard concentration-response curve.
All samples and standards were added to the incubation in 10 μl dimethylsulfoxide (DMSO) for screening (single dose) or in 5 μl DMSO for IC50 determinations. The order of additions for incubation was 190 or 195 μl assay buffer, 200 μl homogenate, 10 or 5 μl sample in DMSO, 100 μl radioactive ligand. The samples were incubated 1 hr at room temperature and then filtered on a 48 well Brandel cell harvester through GF/B filters which had been presoaked for two hours in 50 mM Tris buffer, pH 7.7, containing 0.5% BSA. The filter was washed 3 times with approximately 3 ml of cold 50 mm Tris buffer, pH 7.7. The filter circles were then punched into 12×75 mm polystyrene tubes and counted in a gamma counter.

NK-1 receptor = molecular target: T2, NK-1 receptor (Homo sapiens, UniProt P25103); experiment: NK-1 Receptor Binding Assay (125I-labeled substance P, IM9 cells); conditions: for IC50: inhibits fifty percent of binding of 125I-substance P to IM9 cells; for NK-1 percent inhibition of binding: @ 1 μM
T2 construct: endogenous in cells; host or cells: IM9 cells (human cell line), whole cells
T2 sequence (P25103 whole entry): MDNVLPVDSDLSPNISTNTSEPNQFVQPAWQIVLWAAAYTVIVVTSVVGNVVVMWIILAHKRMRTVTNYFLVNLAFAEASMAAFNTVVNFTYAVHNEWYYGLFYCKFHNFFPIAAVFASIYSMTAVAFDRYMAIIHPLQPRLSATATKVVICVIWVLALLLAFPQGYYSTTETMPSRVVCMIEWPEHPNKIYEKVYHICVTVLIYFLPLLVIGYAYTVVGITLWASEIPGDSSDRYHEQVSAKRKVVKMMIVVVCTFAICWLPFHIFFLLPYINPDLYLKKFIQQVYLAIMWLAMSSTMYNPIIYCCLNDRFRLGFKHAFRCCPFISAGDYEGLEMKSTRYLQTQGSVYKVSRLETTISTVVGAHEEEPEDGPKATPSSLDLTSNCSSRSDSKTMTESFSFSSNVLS
Method in brief: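 Radioligand binding on human IM9 cells, ended by filtration over glass fiber filters presoaked in 0.1% polyethylenimine. Specific binding of labeled substance P defined with 20 nM unlabeled ligand.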

| IC50 (human NK-2 receptor) [nM] | IC50 (NK-1 receptor) [nM] | NK-2 percent inhibition of binding (human NK-2 receptor; @ 10 μM) [% @] | NK-1 percent inhibition of binding (NK-1 receptor) [% @] | inhibition at 10 µM (human NK-2 receptor; @ 10 μM, read-out: NK-2 percent inhibition of binding) [%] | Structure (SMILES) |
| --- | --- | --- | --- | --- | --- |
| 1200 | 13 | – | – | – | COc1ccccc1CN(CC(Cc1c[nH]c2ccccc12)NC(=O)CNCc1cccnc1)C(C)=O (stereo not shown) [Example 82] |
| 5200 | 8.4 | – | – | – | COc1ccccc1CN(CC(Cc1c[nH]c2ccccc12)NC(=O)CNCc1ccncc1)C(C)=O (stereo not shown) [Example 83] |
| 5600 | 120 | – | – | – | COc1ccccc1CN(CC(Cc1c[nH]c2ccccc12)NC(=O)c1ccccc1)C(C)=O (stereo not shown) [Example 88] |
| 760 | 85 | – | – | – | COc1ccccc1CN(CC(Cc1c[nH]c2ccccc12)NC(=O)CCCc1ccccc1)C(C)=O (stereo not shown) [Example 94] |
| 600 | 21 | – | – | – | COc1ccccc1CN(CC(Cc1c[nH]c2ccccc12)NC(=O)CCCC(=O)c1ccccc1)C(C)=O (stereo not shown) [Example 98] |
| – | – | 54 | 15 | – | CC(=O)NC(Cc1c[nH]c2ccccc12)CN(C(C)=O)C(C)c1ccccc1 (stereo not shown) [Example 99] |
| – | – | 40 | 77 | – | CC(=O)NC(Cc1c[nH]c2ccccc12)CN(C(C)=O)C(C)c1ccccc1 (stereo not shown) [Example 100] |
| 6000 | 97 | – | – | – | CC(NCC(Cc1c[nH]c2ccccc12)NC(=O)CN1CCC(N2CCCCC2)CC1)c1ccccc1 (stereo not shown) [Example 101] |
| – | 210 | 59 | – | – | CC(NCC(Cc1c[nH]c2ccccc12)NC(=O)CN1CCC(N2CCCCC2)CC1)c1ccccc1 (stereo not shown) [Example 102] |
| 3700 | 82 | – | – | – | CC(=O)N(CC(Cc1c[nH]c2ccccc12)NC(=O)CN1CCC(N2CCCCC2)CC1)C(C)c1ccccc1 (stereo not shown) [Example 103] |
| 1600 | 0.62 | – | – | – | CC(=O)N(CC(Cc1c[nH]c2ccccc12)NC(=O)CN1CCC(N2CCCCC2)CC1)C(C)c1ccccc1 (stereo not shown) [Example 104] |
| 15200 | 630 | – | – | – | COc1ccccc1CNCC(Cc1c[nH]c2ccccc12)NC(C)=O (stereo not shown) [Example 105] |
| – | 68 | – | – | 33 | COc1ccccc1CN(CC(Cc1c[nH]c2ccccc12)NC(C)=O)C(C)=O (stereo not shown) [Example 106] |
| 420 | – | – | 74 | – | COc1ccccc1CN(CC(Cc1c[nH]c2ccccc12)NC(C)=O)C(=O)CN1CCN(c2ccccc2)CC1 (stereo not shown) [Example 107] |
| 3500 | – | – | 76 | – | CC(=O)NC(Cc1c[nH]c2ccccc12)CN(Cc1ccccc1)C(=O)CN1CCC(N2CCCCC2)CC1 (stereo not shown) [Example 108] |
| 2000 | 190 | – | – | – | CC(=O)NC(Cc1c[nH]c2ccccc12)CN(Cc1ccccc1Cl)C(=O)CN1CCC(N2CCCCC2)CC1 (stereo not shown) [Example 109] |
| 120 | 148 | – | – | – | CC(=O)NC(Cc1c[nH]c2ccccc12)CN(CCc1ccccc1)C(=O)CN1CCN(c2ccccc2)CC1 (stereo not shown) [Example 110] |
| 490 | 1200 | – | – | – | COc1ccccc1CNCC(Cc1c[nH]c2ccc(Br)cc12)NC(=O)CN1CCN(c2ccccc2)CC1 (stereo not shown) [Example 111] |

| IC50 (human NK-2 receptor) [nM] | IC50 (NK-1 receptor) [nM] | NK-2 percent inhibition of binding (human NK-2 receptor; @ 10 μM) [% @] | NK-1 percent inhibition of binding (NK-1 receptor) [% @] | inhibition at 10 µM (human NK-2 receptor; @ 10 μM, read-out: NK-2 percent inhibition of binding) [%] | Structure (SMILES) |
| --- | --- | --- | --- | --- | --- |
| 1200 | 7.8 | – | – | – | COc1ccccc1CN(CC(Cc1cn(C)c2ccccc12)NC(=O)CN1CCN(c2ccccc2)CC1)C(C)=O (stereo not shown) [Example 113] |
| 940 | 29.2 | – | – | – | COc1ccccc1CN(CC(Cc1c[nH]c2cc(C)ccc12)NC(=O)CN1CCN(c2ccccc2)CC1)C(C)=O (stereo not shown) [Example 114] |
| 930 | 58 | – | – | – | COc1ccccc1CN(CC(Cc1c[nH]c2ccc(Br)cc12)NC(=O)CN1CCN(c2ccccc2)CC1)C(C)=O (stereo not shown) [Example 116] |
| 2700 | 9.5 | – | – | – | CC(=O)N(Cc1ccccc1)CC(Cc1c[nH]c2ccc(F)cc12)NC(=O)CN1CCC(N2CCCCC2)CC1 (stereo not shown) [Example 119] |
| 2500 | 27 | – | – | – | COc1ccccc1CNCC(Cc1c[nH]c2cc(F)ccc12)NC(=O)CN1CCC(N2CCCCC2)CC1 (stereo not shown) [Example 123] |
| 1400 | 0.93 | – | – | – | COc1ccccc1CN(CC(Cc1cn(C)c2ccccc12)NC(=O)CN1CCC(N2CCCCC2)CC1)C(C)=O (stereo not shown) [Example 124] |
| 2100 | 0.66 | – | – | – | COc1ccccc1CN(CC(Cc1c[nH]c2cccc(C)c12)NC(=O)CN1CCC(N2CCCCC2)CC1)C(C)=O (stereo not shown) [Example 125] |
| 3400 | 2.8 | – | – | – | COc1ccccc1CN(CC(Cc1c[nH]c2ccc(C)cc12)NC(=O)CN1CCC(N2CCCCC2)CC1)C(C)=O (stereo not shown) [Example 126] |
| 3000 | 7.3 | – | – | – | COc1ccccc1CN(CC(Cc1c[nH]c2cc(C)ccc12)NC(=O)CN1CCC(N2CCCCC2)CC1)C(C)=O (stereo not shown) [Example 127] |
| 430 | – | – | 75 | – | COc1ccccc1CNCC(Cc1cccc2ccccc12)NC(=O)CN1CCN(c2ccccc2)CC1 (stereo not shown) [Example 135] |
| 710 | – | – | 47 | – | COc1ccccc1CNCC(Cc1ccc2ccccc2c1)NC(=O)CN1CCN(c2ccccc2)CC1 (stereo not shown) [Example 136] |
| 2500 | 770 | – | – | – | COc1ccccc1CN(CC(NC(=O)CN1CCN(c2ccccc2)CC1)c1ccccc1)C(C)=O (stereo not shown) [Example 138] |
| 580 | 396 | – | – | – | COc1ccccc1CN(CC(NC(=O)CN1CCN(c2ccccc2)CC1)c1ccc(Cl)c(Cl)c1)C(C)=O (stereo not shown) [Example 139] |
| 3000 | 3.1 | – | – | – | COc1ccccc1CN(CC(Cc1ccccc1)NC(=O)CN1CCN(c2ccccc2)CC1)C(C)=O (stereo not shown) [Example 140] |
| 260 | 11 | – | – | – | COc1ccccc1CN(CC(Cc1cccc2ccccc12)NC(=O)CN1CCN(c2ccccc2)CC1)C(C)=O (stereo not shown) [Example 141] |
| 830 | 8.6 | – | – | – | COc1ccccc1CN(CC(Cc1ccc2ccccc2c1)NC(=O)CN1CCN(c2ccccc2)CC1)C(C)=O (stereo not shown) [Example 142] |
| 3900 | 420 | – | – | – | COc1ccccc1CN(CC(NC(=O)CN1CCC(N2CCCCC2)CC1)c1ccccc1)C(C)=O (stereo not shown) [Example 146] |
